Test system: MV-4-11 cells
Assay: Gene expression microarray analysis (Affymetrix PrimeView) and GSEA
Type: cell-based, human
Set-up: RFU PODN (11730768_x_at) / Fold change /veh PODN (11730768_x_at) / RFU LINC00158 (11744669_a_at) / Fold change /veh LINC00158 (11744669_a_at) / RFU DUSP10 (11751237_a_at) / Fold change /veh DUSP10 (11751237_a_at) / RFU ID3 (11757404_x_at) / Fold change /veh ID3 (11757404_x_at) / RFU PLEKHG5 (11737974_s_at) / Fold change /veh PLEKHG5 (11737974_s_at) / RFU LRRC4B (11730491_at) / Fold change /veh LRRC4B (11730491_at) / RFU GIMAP4 (11747438_a_at) / Fold change /veh GIMAP4 (11747438_a_at) / RFU KRT8 (11758183_x_at) / Fold change /veh KRT8 (11758183_x_at) / RFU CNN1 (11734310_a_at) / Fold change /veh CNN1 (11734310_a_at) / RFU VPS37D (11726825_at) / Fold change /veh VPS37D (11726825_at) / RFU C10orf10 (11716522_x_at) / Fold change /veh C10orf10 (11716522_x_at) / RFU KIR2DL2 /// KIR2DL4 /// KIR2DL5A /// KIR2DL5B /// KIR2DS1 /// KIR2DS2 /// KIR2DS3 /// KIR2DS4 /// KIR3DL3 /// KIR3DL3 /// KIR3DS1 (11738374_at) / Fold change /veh KIR2DL2 /// KIR2DL4 /// KIR2DL5A /// KIR2DL5B /// KIR2DS1 /// KIR2DS2 /// KIR2DS3 /// KIR2DS4 /// KIR3DL3 /// KIR3DL3 /// KIR3DS1 (11738374_at) / RFU C1QL1 (11718748_at) / Fold change /veh C1QL1 (11718748_at) / RFU TMPRSS4 (11747572_a_at) / Fold change /veh TMPRSS4 (11747572_a_at) / RFU HAMP (11756126_x_at) / Fold change /veh HAMP (11756126_x_at) / RFU RNFT2 (11725882_a_at) / Fold change /veh RNFT2 (11725882_a_at) / RFU NR4A2 (11747474_a_at) / Fold change /veh NR4A2 (11747474_a_at) / RFU ABCC12 (11746883_a_at) / Fold change /veh ABCC12 (11746883_a_at) / RFU TMEM136 (11760407_x_at) / Fold change /veh TMEM136 (11760407_x_at) / RFU CLDN22 /// WWC2 (11732394_at) / Fold change /veh CLDN22 /// WWC2 (11732394_at) / RFU HLA-DPB1 (11760878_x_at) / Fold change /veh HLA-DPB1 (11760878_x_at) / RFU SPINT1 (11716480_a_at) / Fold change /veh SPINT1 (11716480_a_at) / RFU GAP43 (11754022_s_at) / Fold change /veh GAP43 (11754022_s_at) / RFU A4GNT (11735810_at) / Fold change /veh A4GNT (11735810_at) / RFU PRB3 (11715151_x_at) / Fold change /veh PRB3 (11715151_x_at) / RFU TUBB4B (11761932_at) / Fold change /veh TUBB4B (11761932_at) / RFU CAPN14 (11732068_a_at) / Fold change /veh CAPN14 (11732068_a_at) / RFU TMCC2 (11721928_a_at) / Fold change /veh TMCC2 (11721928_a_at) / RFU IRGQ (11745062_a_at) / Fold change /veh IRGQ (11745062_a_at) / RFU FAM174B (11720279_a_at) / Fold change /veh FAM174B (11720279_a_at) / RFU TMPRSS4 (11748680_a_at) / Fold change /veh TMPRSS4 (11748680_a_at) / RFU FAM212B (11763350_a_at) / Fold change /veh FAM212B (11763350_a_at) / RFU PLEKHG5 (11743358_a_at) / Fold change /veh PLEKHG5 (11743358_a_at) / RFU ZSCAN30 (11745921_a_at) / Fold change /veh ZSCAN30 (11745921_a_at) / RFU CMKLR1 (11741424_a_at) / Fold change /veh CMKLR1 (11741424_a_at) / RFU LOC101060620 /// MAPK8IP1 (11723275_at) / Fold change /veh LOC101060620 /// MAPK8IP1 (11723275_at) / RFU SPTSSB (11747773_x_at) / Fold change /veh SPTSSB (11747773_x_at) / RFU PRSS12 (11739890_at) / Fold change /veh PRSS12 (11739890_at) / RFU BIN1 (11741810_x_at) / Fold change /veh BIN1 (11741810_x_at) / RFU WNT11 (11732464_a_at) / Fold change /veh WNT11 (11732464_a_at) / RFU C10orf10 (11716521_a_at) / Fold change /veh C10orf10 (11716521_a_at) / RFU C5orf56 (11738089_at) / Fold change /veh C5orf56 (11738089_at) / RFU CYB561 (11721691_x_at) / Fold change /veh CYB561 (11721691_x_at) / RFU ANKRD19P (11752326_a_at) / Fold change /veh ANKRD19P (11752326_a_at) / RFU OR2T12 /// OR2T33 /// OR2T8 (11738714_s_at) / Fold change /veh OR2T12 /// OR2T33 /// OR2T8 (11738714_s_at) / RFU VCAN (11748164_a_at) / Fold change /veh VCAN (11748164_a_at) / RFU JSRP1 (11732532_at) / Fold change /veh JSRP1 (11732532_at) / RFU KRTAP10-11 (11738290_x_at) / Fold change /veh KRTAP10-11 (11738290_x_at) / RFU MYO3A (11730013_a_at) / Fold change /veh MYO3A (11730013_a_at) / RFU EBF3 (11725865_a_at) / Fold change /veh EBF3 (11725865_a_at) / RFU CAMK2N1 (11719241_x_at) / Fold change /veh CAMK2N1 (11719241_x_at) / RFU C5orf56 (11738088_a_at) / Fold change /veh C5orf56 (11738088_a_at) / RFU OLFML3 (11715873_a_at) / Fold change /veh OLFML3 (11715873_a_at) / RFU LOC100653217 /// NTM (11731650_a_at) / Fold change /veh LOC100653217 /// NTM (11731650_a_at) / RFU MAPK11 (11762145_a_at) / Fold change /veh MAPK11 (11762145_a_at) / RFU FIZ1 (11724087_x_at) / Fold change /veh FIZ1 (11724087_x_at) / RFU OASL (11726364_x_at) / Fold change /veh OASL (11726364_x_at) / RFU SOX15 (11748057_x_at) / Fold change /veh SOX15 (11748057_x_at) / RFU CD79A (11719716_a_at) / Fold change /veh CD79A (11719716_a_at) / RFU HIST1H1D (11736915_at) / Fold change /veh HIST1H1D (11736915_at) / RFU CASKIN2 (11723855_a_at) / Fold change /veh CASKIN2 (11723855_a_at) / RFU LOC730098 (11760151_x_at) / Fold change /veh LOC730098 (11760151_x_at) / RFU OR4N2 (11742367_at) / Fold change /veh OR4N2 (11742367_at) / RFU PRRT2 (11749266_a_at) / Fold change /veh PRRT2 (11749266_a_at) / RFU SNX32 (11753110_a_at) / Fold change /veh SNX32 (11753110_a_at) / RFU CDHR5 (11726645_a_at) / Fold change /veh CDHR5 (11726645_a_at) / RFU RCAN1 (11760418_a_at) / Fold change /veh RCAN1 (11760418_a_at) / RFU FAM167A (11723789_a_at) / Fold change /veh FAM167A (11723789_a_at) / RFU FAM26E (11764081_at) / Fold change /veh FAM26E (11764081_at) / RFU ISYNA1 (11749810_s_at) / Fold change /veh ISYNA1 (11749810_s_at) / RFU ACY1 (11761880_at) / Fold change /veh ACY1 (11761880_at) / RFU 11764098_at / Fold change /veh 11764098_at / RFU SAMD14 (11745864_x_at) / Fold change /veh SAMD14 (11745864_x_at) / RFU NPB (11741838_a_at) / Fold change /veh NPB (11741838_a_at) / RFU TMPRSS6 (11731388_a_at) / Fold change /veh TMPRSS6 (11731388_a_at) / RFU KRTAP10-2 (11738614_at) / Fold change /veh KRTAP10-2 (11738614_at) / RFU ARHGAP8 /// PRR5-ARHGAP8 (11727945_x_at) / Fold change /veh ARHGAP8 /// PRR5-ARHGAP8 (11727945_x_at) / RFU KRTAP5-7 /// NADSYN1 (11734609_at) / Fold change /veh KRTAP5-7 /// NADSYN1 (11734609_at) / RFU RASL12 (11751679_a_at) / Fold change /veh RASL12 (11751679_a_at) / RFU CDKN2B (11736163_a_at) / Fold change /veh CDKN2B (11736163_a_at) / RFU PRF1 (11729649_at) / Fold change /veh PRF1 (11729649_at) / RFU, ZNF638 /// ZNF638-IT1 / Fold change vs veh, ZNF638 /// ZNF638-IT1 / RFU, PANK3 / Fold change vs veh, PANK3 / RFU, SH3YL1 / Fold change vs veh, SH3YL1 / RFU, ZEB2 / Fold change vs veh, ZEB2 / RFU, NRIP1 / Fold change vs veh, NRIP1 / RFU, PTTG1IP / Fold change vs veh, PTTG1IP / RFU, CAPN2 / Fold change vs veh, CAPN2 / RFU, MED14 / Fold change vs veh, MED14 / RFU, SNORA58 / Fold change vs veh, SNORA58 / RFU, C1orf63 / Fold change vs veh, C1orf63 / RFU, LRRFIP1 / Fold change vs veh, LRRFIP1 / RFU, NDUFAF7 / Fold change vs veh, NDUFAF7 / RFU, SLC12A2 / Fold change vs veh, SLC12A2 / RFU, IBTK / Fold change vs veh, IBTK / RFU, ESF1 / Fold change vs veh, ESF1 / Fold change vs veh, TMEM50B / RFU, TAOK1 / Fold change vs veh, TAOK1 / RFU, ACBD3 / Fold change vs veh, ACBD3 / RFU, TMA16 / Fold change vs veh, TMA16 / RFU, RWDD3 / Fold change vs veh, RWDD3 / RFU, BCAT1 / Fold change vs veh, BCAT1 / RFU, EDEM3 / Fold change vs veh, EDEM3 / RFU, TMEM33 / Fold change vs veh, TMEM33 / RFU, WDR75 / Fold change vs veh, WDR75 / RFU, AHCTF1 / Fold change vs veh, AHCTF1 / RFU, TFRC / Fold change vs veh, TFRC / RFU, ZDHHC17 / Fold change vs veh, ZDHHC17 / RFU, NOM1 / Fold change vs veh, NOM1 / RFU, ARL8B / Fold change vs veh, ARL8B / RFU, ZBTB11 / Fold change vs veh, ZBTB11 / RFU, TAMM41 / Fold change vs veh, TAMM41 / RFU, KIAA1704 /// LOC100996395 / Fold change vs veh, KIAA1704 /// LOC100996395 / RFU, ING1 / Fold change vs veh, ING1 / RFU, TRMT61B / Fold change vs veh, TRMT61B / RFU, FUBP3 / Fold change vs veh, FUBP3 / RFU, TP53 / Fold change vs veh, TP53 / RFU, TNKS2 / Fold change vs veh, TNKS2 / RFU, ZFP14 / Fold change vs veh, ZFP14 / RFU, ACTR2 / Fold change vs veh, ACTR2 / RFU, PPP3R1 / Fold change vs veh, PPP3R1 / RFU, PIK3R1 / Fold change vs veh, PIK3R1 / RFU, HNRNPA1 / Fold change vs veh, HNRNPA1 / RFU, RNF170 / Fold change vs veh, RNF170 / RFU, ZNF28 / Fold change vs veh, ZNF28 / RFU, RNGTT / Fold change vs veh, RNGTT / RFU, OGT / Fold change vs veh, OGT / RFU, BRD1 / Fold change vs veh, BRD1 / RFU, MARS / Fold change vs veh, MARS / RFU, ZNF655 / Fold change vs veh, ZNF655 / RFU, FAHD1 / Fold change vs veh, FAHD1 / RFU, BDP1 / Fold change vs veh, BDP1 / RFU, LRRCC1 / Fold change vs veh, LRRCC1 / RFU, ARID1A / Fold change vs veh, ARID1A / RFU, ZNF146 / Fold change vs veh, ZNF146 / RFU, ZNF330 / Fold change vs veh, ZNF330 / RFU, GPN3 / Fold change vs veh, GPN3 / RFU, C9orf123 / Fold change vs veh, C9orf123 / RFU, N4BP2L2 / Fold change vs veh, N4BP2L2 / RFU, ARFIP1 / Fold change vs veh, ARFIP1 / RFU, FAM179B / Fold change vs veh, FAM179B / RFU, BCL10 / Fold change vs veh, BCL10 / RFU, UHRF1BP1L / Fold change vs veh, UHRF1BP1L / RFU, BET1 / Fold change vs veh, BET1 / RFU, CNOT2 / Fold change vs veh, CNOT2 / RFU, ZNF268 / Fold change vs veh, ZNF268 / Fold change vs veh, ZNF507 / RFU, DGCR2 / Fold change vs veh, DGCR2 / RFU, WDSUB1 / Fold change vs veh, WDSUB1 / Fold change vs veh, HSP90B1 /// MIR3652 / RFU, ADSS / Fold change vs veh, ADSS / RFU, GK / Fold change vs veh, GK / RFU, ZNF148 / Fold change vs veh, ZNF148 / RFU, TAF9 / Fold change vs veh, TAF9 / RFU, SLC1A5 / Fold change vs veh, SLC1A5 / RFU, SLMO2 / Fold change vs veh, SLMO2 / RFU, ABCC4 / Fold change vs veh, ABCC4 / RFU, LOC101060439 /// RAP1B / Fold change vs veh, LOC101060439 /// RAP1B / RFU, RFX7 / Fold change vs veh, RFX7 / RFU, GTPBP10 / Fold change vs veh, GTPBP10 / RFU, CNEP1R1 / Fold change vs veh, CNEP1R1 / RFU, BIVM-ERCC5 /// ERCC5 / Fold change vs veh, BIVM-ERCC5 /// ERCC5 / RFU, ILF3 / Fold change vs veh, ILF3 / RFU 11762660_at / Fold change /veh 11762660_at / RFU VCAN (11757783_s_at) / Fold change /veh VCAN (11757783_s_at) / RFU DDX43 (11728927_at) / Fold change /veh DDX43 (11728927_at) / RFU KRT8 (11758188_x_at) / Fold change /veh KRT8 (11758188_x_at) / RFU NKD1 (11759106_at) / Fold change /veh NKD1 (11759106_at) / RFU SRD5A1 (11742802_a_at) / Fold change /veh SRD5A1 (11742802_a_at) / RFU TPSAB1 /// TPSB2 (11721975_s_at) / Fold change /veh TPSAB1 /// TPSB2 (11721975_s_at) / RFU GSTM3 (11746129_a_at) / Fold change /veh GSTM3 (11746129_a_at) / RFU IL23R (11737362_x_at) / Fold change /veh IL23R (11737362_x_at) / RFU TMEM51 (11727254_a_at) / Fold change /veh TMEM51 (11727254_a_at) / RFU PIWIL2 (11732686_x_at) / Fold change /veh PIWIL2 (11732686_x_at) / RFU ORM1 (11744905_x_at) / Fold change /veh ORM1 (11744905_x_at) / RFU CCDC152 (11743942_at) / Fold change /veh CCDC152 (11743942_at) / RFU ECM1 (11717891_a_at) / Fold change /veh ECM1 (11717891_a_at) / RFU IL23R (11748794_a_at) / Fold change /veh IL23R (11748794_a_at) / RFU TNFAIP8L3 (11732012_x_at) / Fold change /veh TNFAIP8L3 (11732012_x_at) / RFU MBOAT4 (11741988_at) / Fold change /veh MBOAT4 (11741988_at) / RFU 11764193_at / Fold change /veh 11764193_at / RFU TMEM53 (11763286_at) / Fold change /veh TMEM53 (11763286_at) / RFU MAGEB2 (11727129_at) / Fold change /veh MAGEB2 (11727129_at) / RFU TMEM200A (11744735_a_at) / Fold change /veh TMEM200A (11744735_a_at) / RFU CCDC152 (11751479_a_at) / Fold change /veh CCDC152 (11751479_a_at) / RFU FAM211A (11726209_a_at) / Fold change /veh FAM211A (11726209_a_at) / RFU RGS16 (11746705_a_at) / Fold change /veh RGS16 (11746705_a_at) / RFU VCAN (11755009_s_at) / Fold change /veh VCAN (11755009_s_at) / RFU RHOB (11743442_s_at) / Fold change /veh RHOB (11743442_s_at) / RFU RGS16 (11720943_a_at) / Fold change /veh RGS16 (11720943_a_at) / RFU RGS16 (11720944_at) / Fold change /veh RGS16 (11720944_at) / RFU, VPS4B / Fold change vs veh, VPS4B / RFU, CREB1 / Fold change vs veh, CREB1 / RFU, DNAJC13 / Fold change vs veh, DNAJC13 / RFU, GNAQ / Fold change vs veh, GNAQ / RFU, CDK5R1 / Fold change vs veh, CDK5R1 / RFU, ZRANB3 / Fold change vs veh, ZRANB3 / RFU, CUL4A / Fold change vs veh, CUL4A / RFU, CCNY / Fold change vs veh, CCNY / RFU, UFL1 / Fold change vs veh, UFL1 / RFU, COG3 / Fold change vs veh, COG3 / RFU, DIAPH2 / Fold change vs veh, DIAPH2 / RFU, SKA2 / Fold change vs veh, SKA2 / RFU, AFF3 / Fold change vs veh, AFF3 / RFU, LMF1 / Fold change vs veh, LMF1 / RFU, IPO11 / Fold change vs veh, IPO11 / RFU, DFFB / Fold change vs veh, DFFB / RFU, FOXP1 / Fold change vs veh, FOXP1 / RFU, CARD8 / Fold change vs veh, CARD8 / RFU, STRN3 / Fold change vs veh, STRN3 / RFU, ADK / Fold change vs veh, ADK / RFU, RASSF2 / Fold change vs veh, RASSF2 / RFU, WIPF1 / Fold change vs veh, WIPF1 / RFU, LARP1B / Fold change vs veh, LARP1B / RFU, RASA1 / Fold change vs veh, RASA1 / RFU, RB1 / Fold change vs veh, RB1 / RFU, PPFIA1 / Fold change vs veh, PPFIA1 / RFU, MAT2A / Fold change vs veh, MAT2A / RFU, CCT5 / Fold change vs veh, CCT5 / RFU, WDR92 / Fold change vs veh, WDR92 / RFU, CUX1 / Fold change vs veh, CUX1 / RFU, TTC7A / Fold change vs veh, TTC7A / RFU, TMEM135 / Fold change vs veh, TMEM135 / RFU, DEPTOR / Fold change vs veh, DEPTOR / RFU, CPM / Fold change vs veh, CPM / RFU, DNAJB6 / Fold change vs veh, DNAJB6 / RFU, CACNA2D3 / Fold change vs veh, CACNA2D3 / RFU, DTX4 / Fold change vs veh, DTX4 / RFU, TFCP2 / Fold change vs veh, TFCP2 / RFU, GMCL1 /// GMCL1P1 / Fold change vs veh, GMCL1 /// GMCL1P1 / RFU, AEBP2 / Fold change vs veh, AEBP2 / RFU, SNHG1 /// SNORD22 /// SNORD25 /// SNORD26 /// SNORD27 /// SNORD28 /// SNORD29 /// SNORD31 / Fold change vs veh, SNHG1 /// SNORD22 /// SNORD25 /// SNORD26 /// SNORD27 /// SNORD28 /// SNORD29 /// SNORD31 / Fold change (Aza/veh), C12orf56 (ProbeSet 11735607_a_at) / Fold change (ACY-1035/veh), C12orf56 (ProbeSet 11735607_a_at) / Fold change (Aza/veh), FGFR1OP (ProbeSet 11751329_s_at) / Fold change (ACY-1035/veh), FGFR1OP (ProbeSet 11751329_s_at) / Fold change (Aza/veh), VPS36 (ProbeSet 11739960_a_at) / Fold change (ACY-1035/veh), VPS36 (ProbeSet 11739960_a_at) / RFU SYPL1 (11715823_x_at) / Fold change /veh SYPL1 (11715823_x_at) / RFU IGFBP7 (11715501_s_at) / Fold change /veh IGFBP7 (11715501_s_at) / RFU REEP3 (11722064_at) / Fold change /veh REEP3 (11722064_at) / RFU IGLL1 (11728026_x_at) / Fold change /veh IGLL1 (11728026_x_at): dose or concentration left out as unconfirmed
Conditions: ProbeSet 11754607_s_at; LIST B

`Nc1ncn([C@@H]2O[C@H](CO)[C@@H](O)[C@H]2O)c(=O)n1` [azacitidine] was tested, and the “Fold change vs veh, HSP90B1 /// MIR3652” value was 0.90.

Reference: paper PMC5218480 (PLoS ONE, 2017)
